Source: patent publication US9265773B2, “Tetracyclic heterocycle compounds and methods of use thereof for the treatment of viral diseases” (priority 2011, dated 2016)

What was measured:
HCV replicon genotype 1a = test: microbe, parasite or virus in culture; format: cell-based; details: genotype 1a replicon cells, incubated 96 hours, NS3/4A ELISA readout
HCV replicon genotype 1b = test: microbe, parasite or virus in culture; format: cell-based; details: genotype 1b replicon cells, incubated 96 hours, NS3/4A ELISA readout

Row | Structure (SMILES) | IC50 (HCV replicon genotype 1a; Hepatitis C virus, 96 h) | IC50 (HCV replicon genotype 1b; Hepatitis C virus, 96 h) | IC50 (HCV replicon genotype 1a) | IC50 (HCV replicon genotype 1b)
1 | CNC(=O)c1c(-c2ccc(F)cc2)oc2cc(N(CCF)S(C)(=O)=O)c(-c3ccc4c(n3)-c3cc5c(F)cccc5n3CO4)cc12 [Compound 190] | 2.8 nM | 3.8 nM | – | –
2 | CNC(=O)c1c(-c2ccc(F)cc2)oc2cc(N(CCF)S(C)(=O)=O)c(-c3ccc4c(n3)-c3cc5c(C#N)cccc5n3CO4)cc12 [Compound 191] | 1.7 nM | 2.2 nM | – | –
3 | CNC(=O)c1c(-c2ccc(F)cc2)oc2cc(N(CCCF)S(C)(=O)=O)c(-c3ccc4c(n3)-c3cc5c(F)cccc5n3CO4)cc12 [Compound 192] | 4.6 nM | 7.1 nM | – | –
4 | CNC(=O)c1c(-c2ccc(F)cc2)oc2cc(N(CCF)S(C)(=O)=O)c(-c3ncc4c(n3)-c3cc5c(F)cccc5n3CO4)cc12 [Compound 193] | 1.3 nM | 1.7 nM | – | –
5 | CNC(=O)c1c(-c2ccc(F)cc2)oc2cc(N(CCCF)S(C)(=O)=O)c(-c3ccc4c(n3)-c3cc5c(C#N)cccc5n3CO4)cc12 [Compound 194] | 1.9 nM | 2.3 nM | – | –
6 | CNC(=O)c1c(-c2ccc(F)cc2)oc2cc(N(CCCF)S(C)(=O)=O)c(-c3ncc4c(n3)-c3cc5c(F)cccc5n3CO4)cc12 [Compound 195] | 2.1 nM | 4.1 nM | – | –
7 | CNC(=O)c1c(-c2ccc(F)cc2)oc2cc(N(CCF)S(C)(=O)=O)c(-c3ncc4c(n3)-c3cc5ccccc5n3CO4)cc12 [Compound 196] | 1.8 nM | 3.6 nM | – | –
8 | CNC(=O)c1c(-c2ccc(F)cc2)oc2cc(N(CCCF)S(C)(=O)=O)c(-c3ncc4c(n3)-c3cc5ccccc5n3CO4)cc12 [Compound 197] | 2.6 nM | 4.4 nM | – | –
9 | CNC(=O)c1c(-c2ccc(F)cc2)oc2cc(N(CC(F)F)S(C)(=O)=O)c(-c3ncc4c(n3)-c3cc5ccccc5n3CO4)cc12 [Compound 198] | 2 nM | 5.6 nM | – | –
10 | CNC(=O)c1c(-c2ccc(F)cc2)oc2cc(N(C3COC3)S(C)(=O)=O)c(-c3ccc4c(n3)-c3cc5c(F)cccc5n3CO4)cc12 [Compound 199] | 4.7 nM | 5.9 nM | – | –
11 | CNC(=O)c1c(-c2ccc(F)cc2)oc2cc(N(CC3CC3)S(C)(=O)=O)c(-c3ccc4c(n3)-c3cc5c(F)cccc5n3CO4)cc12 [Compound 200] | 14 nM | 22 nM | – | –
12 | CNC(=O)c1c(-c2ccc(F)cc2)oc2cc(N(CCO)S(C)(=O)=O)c(-c3ccc4c(n3)-c3cc5c(F)cccc5n3CO4)cc12 [Compound 201] | 2.6 nM | 5.5 nM | – | –
13 | CNC(=O)c1c(-c2ccc(F)cc2)oc2cc(N(CC(C)O)S(C)(=O)=O)c(-c3ccc4c(n3)-c3cc5c(F)cccc5n3CO4)cc12 (centres unmarked) [Compound 202] | 2.8 nM | 8.8 nM | – | –
14 | CNC(=O)c1c(-c2ccc(F)cc2)oc2cc(N(CC(C)O)S(C)(=O)=O)c(-c3ccc4c(n3)-c3cc5c(F)cccc5n3CO4)cc12 (centres unmarked) [Compound 203] | – | – | 2.9 nM | 8.9 nM
15 | CNC(=O)c1c(-c2ccc(F)cc2)oc2cc(N(CCC3(O)CC3)S(C)(=O)=O)c(-c3ccc4c(n3)-c3cc5c(F)cccc5n3CO4)cc12 [Compound 204] | 8.1 nM | 19 nM | – | –
16 | CNC(=O)c1c(-c2ccc(F)cc2)oc2cc(N(Cc3ccc(B(O)O)cc3)S(C)(=O)=O)c(-c3ccc4c(n3)-c3cc5c(F)cccc5n3CO4)cc12 [Compound 205, (4-((N-(5-(11-fluoro-6H-pyrido[2′,3′:5,6][1,3]oxazino[3,4-a]indol-2-yl)-2-(4-fluorophenyl)-3-(methylcarbamoyl)benzofuran-6-yl)methylsulfonamido)methyl)phenyl) boronic acid] | 14 nM | 15 nM | – | –
17 | CCOC(=O)C(O)c1c2n(c3cccc(F)c13)COc1ccc(-c3cc4c(C(=O)NC)c(-c5ccc(F)cc5)oc4cc3N(C)S(C)(=O)=O)nc1-2 (centres unmarked) [Compound 206, ethyl 2-(11-fluoro-2-(2-(4-fluorophenyl)-3-(methylcarbamoyl)-6-(N-methylmethylsulfonamido)benzofuran-5-yl)-6H-pyrido[2′,3′:5,6][1,3]oxazino[3,4-a]indol-12-yl)-2-hydroxyacetate] | 15 nM | 23 nM | – | –
18 | CNC(=O)c1c(-c2ccc(F)cc2)oc2cc(N(C)S(C)(=O)=O)c(-c3ccc4c(n3)-c3c(C(O)C(=O)O)c5c(F)cccc5n3CO4)cc12 (centres unmarked) [Compound 207, 2-(11-fluoro-2-(2-(4-fluorophenyl) -3-(methylcarbamoyl)-6-(N-methylmethylsulfonamido)benzofuran-5-yl)-6H-pyrido[2′,3′:5,6][1,3]oxazino[3,4-a]indol-12-yl)-2-hydroxyacetic acid] | 3.3 nM | 2.1 nM | – | –
19 | CCOC(=O)N(C)C(=O)c1c(-c2ccc(F)cc2)oc2cc(N(C)S(C)(=O)=O)c(-c3ccc4c(n3)-c3cc5c(F)cccc5n3CO4)cc12 [Compound 208, Ethyl (5-(11-fluoro-6H-pyrido[2′,3′:5,6][1,3]oxazino[3,4-a]indol-2-yl)-2-(4-fluorophenyl)-6-(N-methylmethylsulfonamido)benzofuran-3-carbonyl)(methyl)carbamate] | 42 nM | 122 nM | – | –
20 | COC(=O)C(=O)N(C)C(=O)c1c(-c2ccc(F)cc2)oc2cc(N(C)S(C)(=O)=O)c(-c3ccc4c(n3)-c3cc5c(F)cccc5n3CO4)cc12 [Compound 209, methyl 2-(5-(11-fluoro-6H-pyrido[2′,3′:5,6][1,3]oxazino[3,4-a]indol-2-yl)-2-(4-fluorophenyl)-N-methyl-6-(N-methylmethylsulfonamido)benzofuran-3-carboxamido)-2-oxoacetate] | 0.6 nM | 2.6 nM | – | –
21 | CC(=O)N(C)C(=O)c1c(-c2ccc(F)cc2)oc2cc(N(C)S(C)(=O)=O)c(-c3ccc4c(n3)-c3cc5c(F)cccc5n3CO4)cc12 [Compound 210, N-acetyl-5-(11-fluoro-6H-pyrido[2′,3′:5,6][1,3]oxazino[3,4-a]indol-2-yl)-2-(4-fluorophenyl)-N-methyl-6-(N-methylmethylsulfonamido)benzofuran-3-carboxamide] | 2.1 nM | 4.2 nM | – | –
22 | CNC(=O)c1c(-c2ccc(F)cc2)oc2cc(N(CCN3CCOCC3)S(C)(=O)=O)c(-c3ccc4c(n3)-c3cc5c(F)cccc5n3CO4)cc12 [Compound 211, 5-(11-fluoro-6H-pyrido[2′,3′:5,6][1,3]oxazino[3,4-a]indol-2-yl)-2-(4-fluorophenyl)-N-methyl-6-(N-(2-morpholinoethyl)methylsulfonamido)benzofuran-3-carboxamide] | 6.5 nM | 12 nM | – | –
